Data: patent publication EP0314302A2, “Herbicidal o-carbomethoxy-sulfonylureas” (E.I. DU PONT DE NEMOURS AND COMPANY, priority 1987, dated 1989)

Columns and labels:
Sugarcane = assay: Test 9 postemergence; format: in vivo; details: scale 0-100
Citrus = assay: Test 11 citrus pots, postemergence to the weeds; format: in vivo; details: Postemergence 32 g/ha, 0.25% X-77 surfactant, scale 0-100
Method: (§1) Budded citrus seedlings were planted in 30-liter plastic pots which were also seeded with sandbur, guineagrass, narrowleaf panicum, common ragweed, yellow nutsedge, purple nutsedge and bindweed. Compound I was applied preemergence and postemergence to the weeds. Treatments were sprayed to simulate the trunk-to-trunk herbicide application method used in some citrus groves. The compound was also applied postemergence to weeds grown in windowsill flats. The flats were filled with planting medium and seeded with morningglory (Ipomoea spp.). purple nutsedge (Cyperus rotundus), pigweed (Amaranthus spp.), bindweed (Convolvulus spp.), narrowleaf panicum (Panicum maximum), common ragweed (Ambrosia artemisiifolia), sandbur (Cenchrus echinatus), itchgrass (Rottboellia exaltata), johnsongrass (Sorghum halepense), guineagrass (Panicum maximum), smooth crabgrass (Digitaria ischaemum), broadleaf signalgrass (Brachiaria platyphylla), bermudagrass (Cynodon dactylon), goosegrass (Eleusine indica), large crabgrass (Digitaria sanguinalis) and yellow nutsedge (Cyperus esculentus).
(§2) The compound was formulated and sprayed with 0.25% X-77 surfactant in water. Plants were visually rated 21 and 29 days after treatment and compared with appropriate controls. Injury ratings were based on the scale of 0 to 100, where 0 indicates no effect, 20 indicates minimum effect and 100 indicates complete control. […]

Pineapple = assay: Test 8 postemergence safety to pineapple, turfs and weed control; format: in vivo; details: scale 0-100
Source text: (§3) The object of this test was to evaluate the compound of this invention for postemergence safety to pineapple, turfs and weed control. Climax timothy, Kentucky bluegrass, forage fescue, Kentucky fescue, bermudagrass, bentgrass, annual bluegrass, bahiagrass, purple nutsedge, yellow nutsedge, large crabgrass, perennial ryegrass, annual ryegrass, galium and pineapple were sprayed postemergence with the compound in a non-phytotoxic solvent. Plants were visually rated 36 days after treatment (DAT). Injury ratings were based on the scale of 0 to 100 where 0 = no effect, 20 = minimal effect and 100 = complete control.

Annual bluegrass = assay: as above; format: in vivo; details: scale 0-100
Source text: as §3

Kochia = assay: Test 7 postemergence; format: in vivo, Kochia spp; details: scale 0-100
Method: (§4) Individual 11.4-cm plastic pots filled with planting medium were seeded with rape, wild radish (Raphanus raphanistruna). tansy mustard (Descurainia pinnata), ball mustard (Neslia paniculata), black mustard (Brassica nigra), yellow mustard, brown mustard, lentils, safflower, flax, sunflower, peanut, vetch, alfalfa, field bean, pea, violet (Viola spp), Kochia (Kochia spp), Russian thistle (Salsola spp), Matricaria spp, groundsel (Senecio spp), shepherdspurse (Capsella bursa-pastoris), nightshade (Solanum spp), sowthistle (Sonchus spp), sugar beet, wheat, "Bonanza" barley and "Morex" barley, Kentucky bluegrass (Poa pratensis), red clover (Trifolium pratense), dandelion (Taraxacum spp) and buckhorn plantain (Plantago lanceolata).
(§5) Plants were treated postemergence with the compound formulated with a non-phytotoxic carrier. Plants were visually rated 18 days after treatment (DAT). Response ratings were based on the scale of 0 to 100 where 0 = no effect, 20 = minimal injury and 100 = complete control.

Bermudagrass = assay: Test 11 windowsill flats, postemergence; format: in vivo, Cynodon dactylon; details: Postemergence 32 g/ha, 0.25% X-77 surfactant, scale 0-100
Method: as §1, §2

Wild oats = assay: Test 10 postemergence safety to crops and weed control; format: in vivo, Avena fatua; details: 16 g/ha, scale 0-100
Method: The object of these tests was to evaluate the compound of this invention for postemergence safety to crops and weed control. Seedling and budded Macedine grapes were grown in 11.4-cm pots. Flax, green foxtail (Setaria viridis), "Morex" barley, wild oats (Avena fatua), "Era" wheat, annual ryegrass (Lolium multiflorum), wild radish (Raphanus raphanistrum), rape, sunflower, chickweed (Stellaria media) and wild buckwheat (Polygonum convolvulus) were seeded in windowsill pots.
The plants were sprayed postemergence with Compound I in a non-phytotoxic solvent. Plants were visually rated 15 and 27 days after treatment (DAT). Injury and weed control ratings were based on the scale of 0 to 100 where 0 = no effect, 20 minimal control and 100 = complete control.

Yellow nutsedge = assay: Test 11 windowsill flats, postemergence; format: in vivo, Cyperus esculentus; details: Postemergence 32 g/ha, 0.25% X-77 surfactant, scale 0-100
Method: as §1, §2

Mikania cordata = assay: Test 4 plantation crop weeds, postemergence; format: in vivo; details: scale 0-100
Source text: (§6) The object of this test was to evaluate the efficacy of the compound of this invention on weeds that infest some plantation crops at different growth stages of the weeds. Asystasia intrusa, Mikania cordata, goldenrod Solidago spp, Boston fern Nephrolepis exalata, and lalang Imparata cylindrica were planted in 15-cm plastic pots. Plants were sprayed postemergence with Compound I in a non-phytotoxic solvent. The Asystasia plants ranged in growth from 4 leaves to 9 leaves and very branched, Mikania had 6 leaves to vining, the goldenrod was branching and the Boston fern was growing vigorously. The degree of weed control was visually rated 20 to 24 days after treatment (DAT). Control ratings are based on the scale of 0 to 100 where 0 = no effect, 20 = minimal control and 100 = complete control. Variations in the results of the tests could be due to the fact that the tests were run at different times of the year or due to the stage of growth of the weeds.

Asystasia intrusa = assay: Test 4 plantation crop weeds, postemergence; format: in vivo; details: scale 0-100; for Control Rating 24 DAT: Table 4, at 4-leaf stage
Source text: as §6

Nephrolepis exalata = assay: Test 4 plantation crop weeds, postemergence; format: in vivo; details: Table 4, scale 0-100
Source text: as §6

Dandelion = assay: Test 7 postemergence; format: in vivo, Taraxacum spp; details: scale 0-100
Method: as §4, §5

Nightshade = assay: Test 7 postemergence; format: in vivo, Solanum spp; details: scale 0-100
Method: as §4, §5

[1] = Table 6, profusely branching, 8 g/ha
[2] = Table 6, profusely branching, 16 g/ha
[3] = Table 6, profusely branching, 32 g/ha
[4] = Table 6, profusely branching, 64 g/ha

COC(=O)c1cccnc1S(=O)(=O)NC(=O)Nc1nc(OC)cc(OC)n1 [Compound I, 2-[[(4,6-dimethoxypyrimidin-2-yl)aminocarbonyl]aminosulfonyl]-3-pyridinecarboxylic acid, methyl ester]
Plant Injury Rating 22 DAT (Sugarcane; 8 g/ha): 10
Plant Injury Rating 22 DAT (Sugarcane; 16 g/ha): 20
Plant Injury Rating 22 DAT (Sugarcane; 32 g/ha): 30
Injury ratings (Citrus): 0
Plant Injury Rating 36 DAT (Pineapple; 16 g/ha): 0
Plant Injury Rating 36 DAT (Pineapple; 32 g/ha): 0
Plant Injury Rating 36 DAT (Annual bluegrass; 16 g/ha): 100
Plant Injury Rating 36 DAT (Annual bluegrass; 32 g/ha): 100
Plant Injury Rating 18 DAT (Kochia; 16 g/ha): 100
Plant Injury Rating 18 DAT (Kochia; 32 g/ha): 100
Injury ratings (Bermudagrass): 20
Plant Injury Rating 15 DAT (Wild oats): 100
Injury ratings (Yellow nutsedge): 80
Control Rating 20 DAT (Mikania cordata; Table 5, at 6 to 8-leaf stage, 8 g/ha): 0
Control Rating 20 DAT (Mikania cordata; Table 5, at 6 to 8-leaf stage, 16 g/ha): 0
Control Rating 20 DAT (Mikania cordata; Table 5, at 6 to 8-leaf stage, 32 g/ha): 0
Control Rating 20 DAT (Mikania cordata; Table 5, at 6 to 8-leaf stage, 64 g/ha): 30
Control Rating 20 DAT (Mikania cordata; [1]): 0
Control Rating 20 DAT (Mikania cordata; [2]): 0
Control Rating 20 DAT (Mikania cordata; [3]): 0
Control Rating 20 DAT (Mikania cordata; [4]): 0
Control Rating 22 DAT (Mikania cordata; Table 7, vining and profusely branching, 8 g/ha): 0
Control Rating 22 DAT (Mikania cordata; Table 7, vining and profusely branching, 16 g/ha): 0
Control Rating 22 DAT (Mikania cordata; Table 7, vining and profusely branching, 32 g/ha): 0
Control Rating 22 DAT (Mikania cordata; Table 7, vining and profusely branching, 64 g/ha): 20
Control Rating 22 DAT (Mikania cordata; Table 8, 16 g/ha): 0
Control Rating 22 DAT (Mikania cordata; Table 8, 32 g/ha): 0
Control Rating 22 DAT (Mikania cordata; Table 8, 64 g/ha): 20
Control Rating 24 DAT (Asystasia intrusa; 4 g/ha): 20
Control Rating 24 DAT (Asystasia intrusa; 8 g/ha): 30
Control Rating 24 DAT (Asystasia intrusa; 16 g/ha): 40
Control Rating 24 DAT (Asystasia intrusa; 32 g/ha): 50
Control Rating 24 DAT (Asystasia intrusa; 64 g/ha): 60
Control Rating 20 DAT (Asystasia intrusa; Table 5, at 6 to 9-leaf stage, 8 g/ha): 0
Control Rating 20 DAT (Asystasia intrusa; Table 5, at 6 to 9-leaf stage, 16 g/ha): 60
Control Rating 20 DAT (Asystasia intrusa; Table 5, at 6 to 9-leaf stage, 32 g/ha): 90
Control Rating 20 DAT (Asystasia intrusa; Table 5, at 6 to 9-leaf stage, 64 g/ha): 100
Control Rating 20 DAT (Asystasia intrusa; [1]): 0
Control Rating 20 DAT (Asystasia intrusa; [2]): 0
Control Rating 20 DAT (Asystasia intrusa; [3]): 0
Control Rating 20 DAT (Asystasia intrusa; [4]): 30
Control Rating 24 DAT (Nephrolepis exalata; 4 g/ha): 0
Control Rating 24 DAT (Nephrolepis exalata; 8 g/ha): 0
Control Rating 24 DAT (Nephrolepis exalata; 16 g/ha): 40
Control Rating 24 DAT (Nephrolepis exalata; 32 g/ha): 60
Control Rating 24 DAT (Nephrolepis exalata; 64 g/ha): 80
Plant Injury Rating 18 DAT (Dandelion; 16 g/ha): 100
Plant Injury Rating 18 DAT (Dandelion; 32 g/ha): 100
Plant Injury Rating 18 DAT (Nightshade; 16 g/ha): 50
Plant Injury Rating 18 DAT (Nightshade; 32 g/ha): 60
